Legend:
[1] = biological target: T1, 20S proteasome core particle, PBE1(β5) subunit (chymotrypsin-like activity) (Arabidopsis thaliana, UniProt O23717); assay: Suc-LLVY-AMC fluorogenic peptidase assay with […] SylA, affinity-purified proteasomes; type: biochemical
T1 construct: with other subunits of the assembled 20S core particle (PAG1(α7)-FLAG)
T1 sequence (O23717 58-274): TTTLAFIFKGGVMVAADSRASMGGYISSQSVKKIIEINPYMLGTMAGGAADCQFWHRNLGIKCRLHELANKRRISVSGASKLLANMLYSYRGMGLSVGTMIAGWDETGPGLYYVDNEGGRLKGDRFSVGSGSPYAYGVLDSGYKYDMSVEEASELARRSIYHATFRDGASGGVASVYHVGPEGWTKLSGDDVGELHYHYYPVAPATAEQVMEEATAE
T1 sequence (O23715 2-249 partner): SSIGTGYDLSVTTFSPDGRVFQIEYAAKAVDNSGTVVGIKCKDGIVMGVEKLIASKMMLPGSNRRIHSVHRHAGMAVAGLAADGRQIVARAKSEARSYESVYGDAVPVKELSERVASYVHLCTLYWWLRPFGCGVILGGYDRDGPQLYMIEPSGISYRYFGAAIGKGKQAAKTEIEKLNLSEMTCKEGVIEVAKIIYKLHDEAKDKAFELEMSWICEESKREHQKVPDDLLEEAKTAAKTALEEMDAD

[2] = biological target: T2, 20S proteasome core particle, PBE1(β5) subunit (chymotrypsin-like activity) (Arabidopsis thaliana, UniProt O23717); assay: Suc-LLVY-AMC cleavage in leaf lysate and APF, […]; type: cell-based
T2 construct: native proteasomes in leaf crude lysate and apoplastic fluid; with other subunits of the assembled 20S core particle
T2 sequence (O23717 58-274): T1 sequence (O23717 58-274)

Structure (SMILES) | Suc-LLVY-AMC fluorogenic peptidase assay with 50 or 150 μM SylA, affinity-purifi [1] | Suc-LLVY-AMC cleavage in leaf lysate and APF, 50 μM [2]
CC(C)[C@H](NC(=O)N[C@H](C(=O)N[C@H]1/C=C/CCNC(=O)/C=C/[C@H](C(C)C)NC1=O)C(C)C)C(=O)O [SylA, syringolin-A] | not only effectively inhibit the proteolytic activity of affinity-purified Arabidopsis proteasomes and those in the CL | –
CC(C)C[C@H](NC(=O)[C@H](Cc1ccccc1)NC(=O)c1cnccn1)B(O)O [BTZ, 1R-3-methyl-1-2S-3-phenyl-2-pyrazin-2-carbonylamino propanoyl amino butyl boronic acid] | – | Suc-LLVY-AMC breakdown in the CL was strongly suppressed by the well-characterized CP inhibitors bortezomib (BTZ), MG132

From article PMC11829042, “Proteasomes accumulate in the plant apoplast where they participate in microbe-associated molecular pattern (MAMP)-triggered pathogen defense” (Nature Communications, 2025)
